#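 Where inhibition never reached the appropriate level, the endpoint shown equals the highest concentration tested. Otherwise, values were interpolated linearly from a five-concentration, 48-hour dose response in 96-well plates. GI50: concentration for 50% inhibition of growth. TGI denotes the concentration required for complete inhibition of growth.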
# Tests used:
# Assay in all cases: NCI tumour cell line growth inhibition, 48 h
# KM12 colon = test system: KM12 colon
# MDA-MB-231 breast = test system: MDA-MB-231 breast
# HOP-92 NSCLC = test system: HOP-92 NSCLC
# OVCAR-8 ovarian = test system: OVCAR-8 ovarian
# 786-0 renal = test system: 786-0 renal
# DU-145 prostate = test system: DU-145 prostate
# SNB-75 CNS = test system: SNB-75 CNS
# EKVX NSCLC = test system: EKVX NSCLC
# OVCAR-5 ovarian = test system: OVCAR-5 ovarian
# SK-MEL-5 melanoma = test system: SK-MEL-5 melanoma
# SK-OV-3 ovarian = test system: SK-OV-3 ovarian
# TK-10 renal = test system: TK-10 renal
# M14 melanoma = test system: M14 melanoma
# SNB-19 CNS = test system: SNB-19 CNS
# OVCAR-4 ovarian = test system: OVCAR-4 ovarian
# PC-3 prostate = test system: PC-3 prostate
# NCI-H226 lung = test system: NCI-H226 lung
# LOX IMVI melanoma = test system: LOX IMVI melanoma
# HOP-62 NSCLC = test system: HOP-62 NSCLC
# NCI/ADR-RES ovarian = test system: NCI/ADR-RES ovarian
# K-562 leukemia = test system: K-562 leukemia
# SF-539 CNS = test system: SF-539 CNS
# HCT-116 colon = test system: HCT-116 colon
# UO-31 renal = test system: UO-31 renal
# RXF 393 renal = test system: RXF 393 renal
# U251 CNS = test system: U251 CNS
# UACC-62 melanoma = test system: UACC-62 melanoma
# T-47D breast = test system: T-47D breast
# SK-MEL-28 melanoma = test system: SK-MEL-28 melanoma
# CAKI-1 renal = test system: CAKI-1 renal
# SK-MEL-2 melanoma = test system: SK-MEL-2 melanoma
# SF-268 CNS = test system: SF-268 CNS
# ACHN renal = test system: ACHN renal
# OVCAR-3 ovarian = test system: OVCAR-3 ovarian
# HCC-2998 colon = test system: HCC-2998 colon
# SF-295 CNS = test system: SF-295 CNS
# MDA-MB-435 = test system: MDA-MB-435
# NCI-H23 lung = test system: NCI-H23 lung
# MCF7 breast = test system: MCF7 breast
# SN12C renal = test system: SN12C renal
# BT-549 breast = test system: BT-549 breast
# UACC-257 melanoma = test system: UACC-257 melanoma
# SW-620 colon = test system: SW-620 colon
# NCI-H460 lung = test system: NCI-H460 lung
# HCT-15 colon = test system: HCT-15 colon
# A498 renal = test system: A498 renal
# HS 578T breast = test system: HS 578T breast
# A549 NSCLC = test system: A549 NSCLC
# COLO 205 colon = test system: COLO 205 colon
# HT29 colon = test system: HT29 colon
structure (smiles),measurement,setting,value
CN(CCCNC(=O)CCOCCOCCOCCNC(=O)Cc1ccc2ccc3cccc4ccc1c2c34)CCCNc1cc(-c2ccc3ccccc3c2)nc2ccccc12,GI50,KM12 colon,470 nM
same,TGI,KM12 colon,1040 nM
same,GI50,MDA-MB-231 breast,546 nM
same,TGI,MDA-MB-231 breast,1060 nM
same,GI50,HOP-92 NSCLC,380 nM
same,TGI,HOP-92 NSCLC,2220 nM
same,GI50,OVCAR-8 ovarian,341 nM
same,TGI,OVCAR-8 ovarian,735 nM
same,GI50,786-0 renal,615 nM
same,TGI,786-0 renal,1110 nM
same,GI50,DU-145 prostate,561 nM
same,TGI,DU-145 prostate,1200 nM
same,GI50,SNB-75 CNS,510 nM
same,TGI,SNB-75 CNS,994 nM
same,GI50,EKVX NSCLC,480 nM
same,TGI,EKVX NSCLC,959 nM
same,GI50,OVCAR-5 ovarian,635 nM
same,TGI,OVCAR-5 ovarian,1180 nM
same,GI50,SK-MEL-5 melanoma,541 nM
same,TGI,SK-MEL-5 melanoma,1010 nM
same,GI50,SK-OV-3 ovarian,634 nM
same,TGI,SK-OV-3 ovarian,1200 nM
same,GI50,TK-10 renal,3290 nM
same,TGI,TK-10 renal,14700 nM
same,GI50,M14 melanoma,591 nM
same,TGI,M14 melanoma,1140 nM
same,GI50,SNB-19 CNS,510 nM
same,TGI,SNB-19 CNS,991 nM
same,GI50,OVCAR-4 ovarian,538 nM
same,TGI,OVCAR-4 ovarian,1180 nM
same,GI50,PC-3 prostate,435 nM
same,TGI,PC-3 prostate,988 nM
same,GI50,NCI-H226 lung,3940 nM
same,TGI,NCI-H226 lung,13300 nM
same,GI50,LOX IMVI melanoma,176 nM
same,TGI,LOX IMVI melanoma,333 nM
same,GI50,HOP-62 NSCLC,593 nM
same,TGI,HOP-62 NSCLC,1120 nM
same,GI50,NCI/ADR-RES ovarian,4220 nM
same,TGI,NCI/ADR-RES ovarian,10600 nM
same,GI50,K-562 leukemia,66.8 nM
same,TGI,K-562 leukemia,146 nM
same,GI50,SF-539 CNS,526 nM
same,TGI,SF-539 CNS,990 nM
same,GI50,HCT-116 colon,130 nM
same,TGI,HCT-116 colon,32500 nM
same,GI50,UO-31 renal,5100 nM
same,TGI,UO-31 renal,13600 nM
same,GI50,RXF 393 renal,507 nM
same,TGI,RXF 393 renal,963 nM
same,GI50,U251 CNS,472 nM
same,TGI,U251 CNS,938 nM
same,GI50,UACC-62 melanoma,1120 nM
same,TGI,UACC-62 melanoma,4550 nM
same,GI50,T-47D breast,654 nM
same,TGI,T-47D breast,1340 nM
same,GI50,SK-MEL-28 melanoma,191 nM
same,TGI,SK-MEL-28 melanoma,347 nM
same,GI50,CAKI-1 renal,1060 nM
same,TGI,CAKI-1 renal,3340 nM
same,GI50,SK-MEL-2 melanoma,4840 nM
same,TGI,SK-MEL-2 melanoma,13200 nM
same,GI50,SF-268 CNS,540 nM
same,TGI,SF-268 CNS,1140 nM
same,GI50,ACHN renal,823 nM
same,TGI,ACHN renal,2200 nM
same,GI50,OVCAR-3 ovarian,572 nM
same,TGI,OVCAR-3 ovarian,1170 nM
same,GI50,HCC-2998 colon,554 nM
same,TGI,HCC-2998 colon,1030 nM
same,GI50,SF-295 CNS,1570 nM
same,TGI,SF-295 CNS,3750 nM
same,GI50,MDA-MB-435,108 nM
same,TGI,MDA-MB-435,403 nM
same,GI50,NCI-H23 lung,767 nM
same,TGI,NCI-H23 lung,2100 nM
same,GI50,MCF7 breast,283 nM
same,TGI,MCF7 breast,771 nM
same,GI50,SN12C renal,3590 nM
same,TGI,SN12C renal,8440 nM
same,GI50,BT-549 breast,2010 nM
same,TGI,BT-549 breast,4680 nM
same,GI50,UACC-257 melanoma,478 nM
same,TGI,UACC-257 melanoma,908 nM
same,GI50,SW-620 colon,247 nM
same,TGI,SW-620 colon,654 nM
same,GI50,NCI-H460 lung,520 nM
same,TGI,NCI-H460 lung,1020 nM
same,GI50,HCT-15 colon,1190 nM
same,TGI,HCT-15 colon,2810 nM
same,GI50,A498 renal,1380 nM
same,TGI,A498 renal,2920 nM
same,GI50,HS 578T breast,1590 nM
same,TGI,HS 578T breast,11500 nM
same,GI50,A549 NSCLC,629 nM
same,TGI,A549 NSCLC,1740 nM
same,GI50,COLO 205 colon,436 nM
same,TGI,COLO 205 colon,902 nM
same,GI50,HT29 colon,108 nM
same,TGI,HT29 colon,419 nM

# From PubChem BioAssay (NCI)
